In patent publication US20260184702A1, “SYNTHESIS, PHARMACOLOGY AND USE OF NEW WATER-SOLUBLE AND SELECTIVE FMS-LIKE TYROSINE KINASE3 (FLT3) INHIBITORS” (Universität Regensburg, priority 2022, published 2026):
≈ marks a conversion by molar mass, not a printed value. Counter-ions that a name gives are not always drawn. Like-named read-outs stand apart in the source and are kept apart here. One block for each compound: values may come before it.

What was measured:
[1] = Solubility test by UV-Vis spectroscopy of saturated solutions; type: physicochemical; settings: saturated solution; for solubility: thermodynamic from solid
Protocol: All UV-Vis measurements were carried out with an Agilent Cary 60 UV-Vis 2.00 between 800-200 nm. The absorbance was measured with a scan rate of 300.0 nm/min, a data interval of 0.50 nm and an UV-Vis Average Time of 0.10 s. For all measurements a cuvette with 10 mm light path was used. A calibration curve was plotted from several different concentrations and the solubility of the respective compound was determined by measuring the absorbance of a diluted saturated solution. As a blank curve a mixture of ultrapure water and ethanol in a ratio of 1:1 or 5:95 was recorded. For the calibration curve a 100 μM or a 10 μM solution of the compound in an ultrapure water:ethanol (1:1) or (5:95)-mixture was prepared and diluted to obtain at least 6 concentrations. […] The supernatant was taken using a syringe and filtered through a syringe filter (RC Membrane). The saturated solution was diluted with ultrapure water and ethanol to obtain an appropriate concentration in a water:ethanol (1:1) or (5:95)-mixture. The long wave absorbance maximum was used for determination of the solubility (mean values, determination in triplicate). […] By plotting the concentration of the solution against the absorbance values at the previously determined wavelength maximum a calibration curve was obtained (FIG. 1B).

[2] = as above; type: physicochemical; settings: solvent DMSO
[3] = biological target: T1, human FLT3-ITD (Homo sapiens, UniProt P36888); assay: Enzymatic kinase assay FLT3 (ITD), 10-dose IC50 mode (Reaction Biology); type: biochemical
T1 sequence (P36888 1-993): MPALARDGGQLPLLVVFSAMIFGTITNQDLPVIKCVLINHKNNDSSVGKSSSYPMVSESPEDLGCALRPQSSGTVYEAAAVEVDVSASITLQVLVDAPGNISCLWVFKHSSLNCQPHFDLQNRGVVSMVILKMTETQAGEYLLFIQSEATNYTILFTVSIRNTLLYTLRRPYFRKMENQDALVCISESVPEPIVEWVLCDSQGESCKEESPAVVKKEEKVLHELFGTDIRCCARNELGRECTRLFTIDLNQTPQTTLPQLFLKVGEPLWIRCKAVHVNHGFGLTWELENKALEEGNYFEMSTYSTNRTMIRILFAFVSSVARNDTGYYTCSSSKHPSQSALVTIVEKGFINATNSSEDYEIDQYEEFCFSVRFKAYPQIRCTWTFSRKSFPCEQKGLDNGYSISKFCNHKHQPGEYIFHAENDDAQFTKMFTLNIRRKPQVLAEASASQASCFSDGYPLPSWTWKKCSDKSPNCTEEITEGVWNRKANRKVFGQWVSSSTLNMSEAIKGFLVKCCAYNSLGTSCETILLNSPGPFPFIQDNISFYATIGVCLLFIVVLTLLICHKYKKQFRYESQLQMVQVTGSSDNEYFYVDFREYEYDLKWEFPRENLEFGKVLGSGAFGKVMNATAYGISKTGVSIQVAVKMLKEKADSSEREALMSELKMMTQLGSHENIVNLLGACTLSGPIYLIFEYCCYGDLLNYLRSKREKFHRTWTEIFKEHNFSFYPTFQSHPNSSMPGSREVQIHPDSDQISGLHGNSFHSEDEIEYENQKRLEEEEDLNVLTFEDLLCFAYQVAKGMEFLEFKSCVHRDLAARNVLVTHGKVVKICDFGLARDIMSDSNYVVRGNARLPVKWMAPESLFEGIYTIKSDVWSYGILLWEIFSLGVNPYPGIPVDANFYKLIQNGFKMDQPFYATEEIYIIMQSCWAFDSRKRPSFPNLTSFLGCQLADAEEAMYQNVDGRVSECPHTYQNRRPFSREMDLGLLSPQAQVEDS

[4] = system: subcutaneous MV4-11 CDX model; assay: In vivo efficacy study in subcutaneous MV4-11 CDX model in NOD/SCID mice; settings: 50 mg/kg po daily 5 days
[5] = ethanol, organic solvent or mixture, ethanol, read-out: Solubility Ethanol
[6] = ultrapure water, water, ultrapure water, read-out: Solubility Water
[7] = 10 μM ATP; read-out: IC50 FLT3 (ITD)
[8] = ethanol, 2,2,2-trifluoroacetate
[9] = read-out: IC50 FLT3 (ITD); 10 μM ATP

- IC50 [3, 7]: 2 nM
Compound: CC(C)(C)c1cc(NC(=O)Nc2ccc3oc(C(=O)c4cc5c(CN6CCOCC6)c(O)ccc5[nH]4)cc3c2)no1 [Compound 30c, 1-(5-(tert-Butyl)isoxazol-3-yl)-3-(2-(5-hydroxy-4-(morpholinomethyl)-1H-indole-2-carbonyl)benzofuran-5-yl)urea hydrochloride]

- solubility [1, 5]: 2200 µg/mL (≈ 3960 µM)
- solubility [1, 6]: < 100 µg/mL
- Solubility DMSO [2]: Soluble
Compound: CC(C)(C)c1cc(NC(=O)Nc2ccc3oc(C(=O)c4cc5c(CN6CCCCC6)c(O)ccc5[nH]4)cc3c2)no1 [Compound 31a, 1-(5-(tert-Butyl)isoxazol-3-yl)-3-(2-(5-hydroxy-4-(piperidin-1-ylmethyl)-1H-indole-2-carbonyl)benzofuran-5-yl)urea]

- Solubility Ethanol [1, 8]: 1890 µg/mL (≈ 3400 µM)
Compound: CC(C)(C)c1cc(NC(=O)Nc2ccc3oc(C(=O)c4cc5c(CN6CCCCC6)c(O)ccc5[nH]4)cc3c2)no1 [Compound 31b, 1-(5-(tert-Butyl)isoxazol-3-yl)-3-(2-(5-hydroxy-4-(piperidin-1-ylmethyl)-1H-indole-2-carbonyl)benzofuran-5-yl)urea 2,2,2-trifluoroacetate]

- Solubility Ethanol ([1]; ethanol): 910 µg/mL (≈ 1680 µM)
- solubility [1, 6]: < 100 µg/mL
- Solubility DMSO [2]: Soluble
Compound: CC(C)(C)c1cc(NC(=O)Nc2ccc3oc(C(=O)c4cc5c(CN6CCCC6)c(O)ccc5[nH]4)cc3c2)no1 [Compound 32a, 1-(5-(tert-Butyl)isoxazol-3-yl)-3-(2-(5-hydroxy-4-(pyrrolidin-1-ylmethyl)-1H-indole-2-carbonyl)benzofuran-5-yl)urea]

- Solubility Ethanol [1, 8]: 2400 µg/mL (≈ 4430 µM)
Compound: CC(C)(C)c1cc(NC(=O)Nc2ccc3oc(C(=O)c4cc5c(CN6CCCC6)c(O)ccc5[nH]4)cc3c2)no1 [Compound 32b, 1-(5-(tert-Butyl)isoxazol-3-yl)-3-(2-(5-hydroxy-4-(pyrrolidin-1-ylmethyl)-1H-indole-2-carbonyl)benzofuran-5-yl)urea 2,2,2-trifluoroacetate]

- solubility [1, 5]: 900 µg/mL (≈ 1370 µM)
- solubility [1, 6]: < 100 µg/mL
- Solubility DMSO [2]: Soluble
Compound: CC(C)(C)OC(=O)N1CCN(Cc2c(O)ccc3[nH]c(C(=O)c4cc5cc(NC(=O)Nc6cc(C(C)(C)C)on6)ccc5o4)cc23)CC1 [Compound 54a]

- Solubility Ethanol ([1]; ethanol): 4410 µg/mL (≈ 7540 µM)
- Solubility Water ([1]; ultrapure water): 100 µg/mL (≈ 171 µM)
- Solubility DMSO [2]: Soluble
Compound: CCN1CCN(Cc2c(O)ccc3[nH]c(C(=O)c4cc5cc(NC(=O)Nc6cc(C(C)(C)C)on6)ccc5o4)cc23)CC1 [Compound 69b]

- Solubility Ethanol ([1]; ethanol, bis(2,2,2-trifluoroacetate)): 1820 µg/mL (≈ 3040 µM)
- Solubility Water ([1]; ultrapure water, bis(2,2,2-trifluoroacetate)): 370 µg/mL (≈ 618 µM)
Compound: CC(C)N1CCN(Cc2c(O)ccc3[nH]c(C(=O)c4cc5cc(NC(=O)Nc6cc(C(C)(C)C)on6)ccc5o4)cc23)CC1 [Compound 70b, 1-(5-(tert-Butyl)isoxazol-3-yl)-3-(2-(5-hydroxy-4-((4-isopropylpiperazin-1-yl)methyl)-1H-indole-2-carbonyl)benzofuran-5-yl)urea bis(2,2,2-trifluoroacetate)]

Second part, the compound before the results:

Compound: CC(C)(C)c1cc(NC(=O)Nc2ccc3oc(C(=O)c4cc5c(CN6CCOCC6)c(O)ccc5[nH]4)cc3c2)no1 [Compound 30b, 1-(5-(tert-Butyl)isoxazol-3-yl)-3-(2-(5-hydroxy-4-(morpholinomethyl)-1H-indole-2-carbonyl)benzofuran-5-yl)urea 2,2,2-trifluoroacetate]
- solubility [1, 5]: 2570 µg/mL (≈ 4610 µM)
- solubility [1, 6]: 140 µg/mL (≈ 251 µM)
- Solubility DMSO [2]: Soluble

Compound: CN(C)Cc1c(O)ccc2[nH]c(C(=O)c3cc4cc(NC(=O)Nc5cc(C(C)(C)C)on5)ccc4o3)cc12 [Compound 34a, 1-(5-tert-Butylisoxazol-3-yl)-3-(2-(4-((dimethylamino)methyl)-5-hydroxy-1H-indole-2-carbonyl)benzofuran-5-yl)urea]
- IC50 [3, 7]: 1.51 nM

Compound: CC(C)(C)c1cc(NC(=O)Nc2ccc3oc(C(=O)c4cc5c(CN6CCOCC6)c(OC(=O)N6CCC(N7CCCCC7)CC6)ccc5[nH]4)cc3c2)no1 [Compound 38a, 2-(5-(3-(5-(tert-Butyl)isoxazol-3-yl)ureido)benzofuran-2-carbonyl)-4-(morpholinomethyl)-1H-indol-5-yl[1,4′-bipiperidine]-1′-carboxylate]
- solubility [1, 5]: 890 µg/mL (≈ 1180 µM)
- solubility [1, 6]: < 100 µg/mL

Compound: CC(C)(C)c1cc(NC(=O)Nc2ccc3oc(C(=O)c4cc5c(CN6CCOCC6)c(OC(=O)N6CCC(N7CCCCC7)CC6)ccc5[nH]4)cc3c2)no1 [Compound 38c, 2-(5-(3-(5-(tert-Butyl)isoxazol-3-yl)ureido)benzofuran-2-carbonyl)-4-(morpholinomethyl)-1H-indol-5-yl [1,4′-bipiperidine]-1′-carboxylate Dihydrochloride]
- IC50 ([3]; read-out: IC50 FLT3 (ITD); 10 μM ATP; Dihydrochloride): 1.51 nM

Compound: CC(C)(C)c1cc(NC(=O)Nc2ccc3oc(C(=O)c4cc5c(CN6CCCCC6)c(OC(=O)N6CCC(N7CCCCC7)CC6)ccc5[nH]4)cc3c2)no1 [Compound 39a, 2-(5-(3-(5-(tert-Butyl)isoxazol-3-yl)ureido)benzofuran-2-carbonyl)-4-(piperidin-1-ylmethyl)-1H-indol-5-yl [1,4′-bipiperidine]-1′-carboxylate]
- IC50 [3, 9]: 1.14 nM
- solubility [1, 5]: 1590 µg/mL (≈ 2120 µM)
- solubility [1, 6]: < 100 µg/mL

Compound: CC(C)(C)c1cc(NC(=O)Nc2ccc3oc(C(=O)c4cc5c(CN6CCCC6)c(OC(=O)N6CCC(N7CCCCC7)CC6)ccc5[nH]4)cc3c2)no1 [Compound 40a, 2-(5-(3-(5-(tert-Butyl)isoxazol-3-yl)ureido)benzofuran-2-carbonyl)-4-(pyrrolidin-1-ylmethyl)-1H-indol-5-yl [1,4′-bipiperidine]-1′-carboxylate]
- IC50 [3, 9]: 1.15 nM
- solubility [1, 5]: 1240 µg/mL (≈ 1690 µM)
- solubility [1, 6]: < 100 µg/mL

Compound: CN1CCN(Cc2c(OC(=O)N3CCC(N4CCCCC4)CC3)ccc3[nH]c(C(=O)c4cc5cc(NC(=O)Nc6cc(C(C)(C)C)on6)ccc5o4)cc23)CC1 [Compound 41c, 2-(5-(3-(5-(tert-Butyl)isoxazol-3-yl)ureido)benzofuran-2-carbonyl)-4-((4-methylpiperazin-1-yl)methyl)-1H-indol-5-yl [1,4′-bipiperidine]-1′-carboxylate Trihydrochloride]
- IC50 ([3]; read-out: IC50 FLT3 (ITD); 10 μM ATP; Trihydrochloride): 0.5 nM

Compound: CN(C)Cc1c(OC(=O)N2CCC(N3CCCCC3)CC2)ccc2[nH]c(C(=O)c3cc4cc(NC(=O)Nc5cc(C(C)(C)C)on5)ccc4o3)cc12 [Compound 42a, 2-(5-(3-(5-(tert-Butyl)isoxazol-3-yl)ureido)benzofuran-2-carbonyl)-4-((dimethylamino)methyl)-1H-indol-5-yl [1,4′-bipiperidine]-1′-carboxylate]
- IC50 [3, 9]: 1.23 nM

Compound: CO[C@@H]1[C@H](N(C)C(=O)c2ccccc2)C[C@H]2O[C@]1(C)n1c3ccccc3c3c4c(c5c6ccccc6n2c5c31)C(=O)NC4 [Midostaurin, reference compound]
- first death(s) (day of study) [4]: 520000 s
- second death (day of study) [4]: 9 days
- number of living subjects, day of study 5 ([4]; 5 mice): 5
- number of living subjects, day of study 6 ([4]; 5 mice): 4
- number of living subjects, day of study 8 ([4]; 5 mice): 4
- number of living subjects, day of study 13 ([4]; 5 mice): 3
- number of living subjects, day of study 26 ([4]; 5 mice): 3
- number of living subjects, day of study 36 ([4]; 5 mice): 0
